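Cultured in 96-well plates, cells were exposed to test compound for 48 hours across five concentrations. GI50 is the concentration that inhibits growth by half.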 Calls of active or inactive are those of the source. Cut-off read from the data, not from the text of the source: active = GI50 up to about 1.1 µM and inactive = higher.
What was measured:
Assay in all cases: NCI tumour cell line growth inhibition, 48 h
786-0 = tested on: 786-0
A498 = tested on: A498
A549 = tested on: A549
ACHN = tested on: ACHN
BT-549 = tested on: BT-549
CAKI-1 = tested on: CAKI-1
CCRF-CEM = tested on: CCRF-CEM
COLO 205 = tested on: COLO 205
DU-145 = tested on: DU-145
EKVX = tested on: EKVX
HCC 2998 = tested on: HCC 2998
HCT-116 = tested on: HCT-116
HCT-15 = tested on: HCT-15
HL-60 = tested on: HL-60
HOP-62 = tested on: HOP-62
HOP-92 = tested on: HOP-92
HT-29 = tested on: HT-29
Hs-578T = tested on: Hs-578T
IGROV-1 = tested on: IGROV-1
K562 = tested on: K562
KM12 = tested on: KM12
LOX IMVI = tested on: LOX IMVI
M14 = tested on: M14
MCF7 = tested on: MCF7
MDA-MB-231 = tested on: MDA-MB-231
MDA-MB-435 = tested on: MDA-MB-435
MDA-N = tested on: MDA-N
MOLT-4 = tested on: MOLT-4
Malme-3M = tested on: Malme-3M
NCI-H226 = tested on: NCI-H226
NCI-H23 = tested on: NCI-H23
NCI-H460 = tested on: NCI-H460
NCI-H522 = tested on: NCI-H522
NCI/ADR-RES = tested on: NCI/ADR-RES
OVCAR-3 = tested on: OVCAR-3
OVCAR-4 = tested on: OVCAR-4
OVCAR-5 = tested on: OVCAR-5
OVCAR-8 = tested on: OVCAR-8
PC-3 = tested on: PC-3
RPMI-8226 = tested on: RPMI-8226
RXF 393 = tested on: RXF 393
SF-268 = tested on: SF-268
SF-295 = tested on: SF-295
SF-539 = tested on: SF-539
SK-MEL-28 = tested on: SK-MEL-28
SK-MEL-2 = tested on: SK-MEL-2
SK-MEL-5 = tested on: SK-MEL-5
SK-OV-3 = tested on: SK-OV-3
SN12C = tested on: SN12C
SNB-19 = tested on: SNB-19
SR = tested on: SR
SW-620 = tested on: SW-620
T47D = tested on: T47D
TK-10 = tested on: TK-10
U-251 = tested on: U-251
UACC-257 = tested on: UACC-257
UACC-62 = tested on: UACC-62
UO-31 = tested on: UO-31
SNB-75 = tested on: SNB-75

COc1c2occc2c(OC)c2c(=O)c(S(=O)(=O)NC(=O)Nc3ccc(Cl)cc3)coc12
GI50 (786-0): > 10 µM (inactive)
GI50 (A498): > 10 µM (inactive)
GI50 (A549): > 10 µM (inactive)
GI50 (ACHN): > 10 µM (inactive)
GI50 (BT-549): > 10 µM (inactive)
GI50 (CAKI-1): > 10 µM (inactive)
GI50 (CCRF-CEM): > 10 µM (inactive)
GI50 (COLO 205): > 10 µM (inactive)
GI50 (DU-145): > 10 µM (inactive)
GI50 (EKVX): > 10 µM (inactive)
GI50 (HCC 2998): > 10 µM (inactive)
GI50 (HCT-116): > 10 µM (inactive)
GI50 (HCT-15): > 10 µM
GI50 (HL-60): > 10 µM (inactive)
GI50 (HOP-62): > 10 µM (inactive)
GI50 (HOP-92): > 10 µM (inactive)
GI50 (HT-29): > 10 µM (inactive)
GI50 (Hs-578T): > 10 µM (inactive)
GI50 (IGROV-1): > 10 µM (inactive)
GI50 (K562): > 10 µM (inactive)
GI50 (KM12): > 10 µM (inactive)
GI50 (LOX IMVI): > 10 µM (inactive)
GI50 (M14): > 10 µM (inactive)
GI50 (MCF7): > 10 µM (inactive)
GI50 (MDA-MB-231): > 10 µM (inactive)
GI50 (MDA-MB-435): > 10 µM (inactive)
GI50 (MDA-N): > 10 µM (inactive)
GI50 (MOLT-4): > 10 µM (inactive)
GI50 (Malme-3M): > 10 µM (inactive)
GI50 (NCI-H226): > 10 µM (inactive)
GI50 (NCI-H23): > 10 µM (inactive)
GI50 (NCI-H460): > 10 µM (inactive)
GI50 (NCI-H522): > 10 µM (inactive)
GI50 (NCI/ADR-RES): > 10 µM (inactive)
GI50 (OVCAR-3): > 10 µM (inactive)
GI50 (OVCAR-4): > 10 µM (inactive)
GI50 (OVCAR-5): > 10 µM (inactive)
GI50 (OVCAR-8): > 10 µM (inactive)
GI50 (PC-3): > 10 µM (inactive)
GI50 (RPMI-8226): > 10 µM (inactive)
GI50 (RXF 393): > 10 µM (inactive)
GI50 (SF-268): > 10 µM (inactive)
GI50 (SF-295): > 10 µM (inactive)
GI50 (SF-539): > 10 µM (inactive)
GI50 (SK-MEL-28): > 10 µM (inactive)
GI50 (SK-MEL-2): > 10 µM (inactive)
GI50 (SK-MEL-5): > 10 µM (inactive)
GI50 (SK-OV-3): > 10 µM (inactive)
GI50 (SN12C): > 10 µM (inactive)
GI50 (SNB-19): > 10 µM (inactive)
GI50 (SR): > 10 µM (inactive)
GI50 (SW-620): > 10 µM (inactive)
GI50 (T47D): > 10 µM (inactive)
GI50 (TK-10): > 10 µM (inactive)
GI50 (U-251): > 10 µM (inactive)
GI50 (UACC-257): > 10 µM (inactive)
GI50 (UACC-62): > 10 µM (inactive)
GI50 (UO-31): > 10 µM (inactive)

CCOC(=O)C1CCC(=O)N1C(=O)c1ccccc1Cl (stereo not given)
GI50 (786-0): > 100 µM (inactive)
GI50 (A498): > 100 µM (inactive)
GI50 (A549): > 100 µM (inactive)
GI50 (ACHN): > 100 µM (inactive)
GI50 (BT-549): > 100 µM (inactive)
GI50 (CAKI-1): > 100 µM (inactive)
GI50 (CCRF-CEM): > 100 µM (inactive)
GI50 (DU-145): > 100 µM (inactive)
GI50 (EKVX): > 100 µM (inactive)
GI50 (HCC 2998): > 100 µM (inactive)
GI50 (HCT-116): > 100 µM (inactive)
GI50 (HCT-15): > 100 µM
GI50 (HL-60): > 100 µM (inactive)
GI50 (HOP-62): > 100 µM (inactive)
GI50 (HOP-92): > 100 µM (inactive)
GI50 (HT-29): > 100 µM (inactive)
GI50 (Hs-578T): > 100 µM (inactive)
GI50 (IGROV-1): > 100 µM (inactive)
GI50 (K562): > 100 µM (inactive)
GI50 (KM12): > 100 µM (inactive)
GI50 (LOX IMVI): > 100 µM (inactive)
GI50 (M14): > 100 µM (inactive)
GI50 (MCF7): > 100 µM (inactive)
GI50 (MDA-MB-231): > 100 µM (inactive)
GI50 (MDA-MB-435): > 100 µM (inactive)
GI50 (MDA-N): > 100 µM (inactive)
GI50 (MOLT-4): > 100 µM (inactive)
GI50 (Malme-3M): > 100 µM (inactive)
GI50 (NCI-H226): > 100 µM (inactive)
GI50 (NCI-H23): > 100 µM (inactive)
GI50 (NCI-H460): > 100 µM (inactive)
GI50 (NCI-H522): > 100 µM (inactive)
GI50 (NCI/ADR-RES): > 100 µM (inactive)
GI50 (OVCAR-3): > 100 µM (inactive)
GI50 (OVCAR-5): > 100 µM (inactive)
GI50 (OVCAR-8): > 100 µM (inactive)
GI50 (PC-3): > 100 µM (inactive)
GI50 (RPMI-8226): > 100 µM (inactive)
GI50 (RXF 393): > 100 µM (inactive)
GI50 (SF-268): > 100 µM (inactive)
GI50 (SF-295): > 100 µM (inactive)
GI50 (SF-539): > 100 µM (inactive)
GI50 (SK-MEL-28): > 100 µM (inactive)
GI50 (SK-MEL-5): > 100 µM (inactive)
GI50 (SN12C): > 100 µM (inactive)
GI50 (SNB-19): > 100 µM (inactive)
GI50 (SNB-75): > 100 µM (inactive)
GI50 (SR): > 100 µM (inactive)
GI50 (SW-620): > 100 µM (inactive)
GI50 (T47D): > 100 µM (inactive)
GI50 (TK-10): > 100 µM (inactive)
GI50 (U-251): > 100 µM (inactive)
GI50 (UACC-257): > 100 µM (inactive)
GI50 (UACC-62): 27.4 µM (inactive)
GI50 (UO-31): > 100 µM (inactive)

CCOC(=O)CC1(O)CCCCC1(Sc1ccc(C)cc1)Sc1ccc(C)cc1 (stereo not given)
GI50 (786-0): 48.2 µM (inactive)
GI50 (A498): > 100 µM (inactive)
GI50 (A549): 33.8 µM (inactive)
GI50 (ACHN): 51.5 µM (inactive)
GI50 (BT-549): 83 µM (inactive)
GI50 (CAKI-1): 32.2 µM (inactive)
GI50 (CCRF-CEM): 4.76 µM (inactive)
GI50 (COLO 205): 42.2 µM (inactive)
GI50 (DU-145): 59.2 µM (inactive)
GI50 (EKVX): 26.9 µM (inactive)
GI50 (HCC 2998): 31.5 µM (inactive)
GI50 (HCT-116): 33.9 µM (inactive)
GI50 (HCT-15): 34.4 µM
GI50 (HL-60): 24.7 µM (inactive)
GI50 (HOP-62): 54.2 µM (inactive)
GI50 (HOP-92): 29.6 µM (inactive)
GI50 (HT-29): 32.2 µM (inactive)
GI50 (Hs-578T): 25.4 µM (inactive)
GI50 (K562): 41.5 µM (inactive)
GI50 (KM12): 44.2 µM (inactive)
GI50 (LOX IMVI): 36.8 µM (inactive)
GI50 (M14): 41.4 µM (inactive)
GI50 (MCF7): 31.6 µM (inactive)
GI50 (MDA-MB-231): 77.4 µM (inactive)
GI50 (MDA-MB-435): 33.9 µM (inactive)
GI50 (MDA-N): 35.5 µM (inactive)
GI50 (MOLT-4): 24.9 µM (inactive)
GI50 (Malme-3M): 30.5 µM (inactive)
GI50 (NCI-H226): 34.4 µM (inactive)
GI50 (NCI-H23): 49.4 µM (inactive)
GI50 (NCI-H460): 56.4 µM (inactive)
GI50 (NCI-H522): 18.7 µM (inactive)
GI50 (NCI/ADR-RES): 65.9 µM (inactive)
GI50 (OVCAR-3): 55.5 µM (inactive)
GI50 (OVCAR-4): 47.8 µM (inactive)
GI50 (OVCAR-5): 44.2 µM (inactive)
GI50 (OVCAR-8): 56.1 µM (inactive)
GI50 (PC-3): 33.3 µM (inactive)
GI50 (RXF 393): 42.4 µM (inactive)
GI50 (SF-268): 31.7 µM (inactive)
GI50 (SF-295): 41 µM (inactive)
GI50 (SF-539): > 100 µM (inactive)
GI50 (SK-MEL-28): 39.2 µM (inactive)
GI50 (SK-MEL-2): 20.5 µM (inactive)
GI50 (SK-MEL-5): 29.9 µM (inactive)
GI50 (SK-OV-3): > 100 µM (inactive)
GI50 (SN12C): 39.4 µM (inactive)
GI50 (SNB-19): 81.1 µM (inactive)
GI50 (SNB-75): 27.5 µM (inactive)
GI50 (SR): 31.3 µM (inactive)
GI50 (SW-620): 62.4 µM (inactive)
GI50 (T47D): 19.4 µM (inactive)
GI50 (TK-10): > 100 µM (inactive)
GI50 (U-251): 33.7 µM (inactive)
GI50 (UACC-257): 24.1 µM (inactive)
GI50 (UACC-62): 92 µM (inactive)
GI50 (UO-31): 41.8 µM (inactive)

From ChEMBL document CHEMBL1201862, “PubChem BioAssay data set” (2004)
